The values below come from patent publication US20220153745A1, “DISUBSTITUTED BENZOTHIENYL-PYRROLOTRIAZINES AND THEIR USE AS FGFR KINASE INHIBITORS” (Bayer Intellectual Property GmbH, priority 2011, published 2022).

Structures can show the parent of a compound that is named as a salt.

The target in assay [1] is T1, FGFR-1 (Homo sapiens, UniProt P11362).
T1 construct: human FGFR-1 from amino acids G400 to R800 as in GenBank entry NM_015850; purchased Proqinase 0101-0000-1; host or cells: SF9 insect cells (baculovirus)
T1 sequence (P11362 402-822): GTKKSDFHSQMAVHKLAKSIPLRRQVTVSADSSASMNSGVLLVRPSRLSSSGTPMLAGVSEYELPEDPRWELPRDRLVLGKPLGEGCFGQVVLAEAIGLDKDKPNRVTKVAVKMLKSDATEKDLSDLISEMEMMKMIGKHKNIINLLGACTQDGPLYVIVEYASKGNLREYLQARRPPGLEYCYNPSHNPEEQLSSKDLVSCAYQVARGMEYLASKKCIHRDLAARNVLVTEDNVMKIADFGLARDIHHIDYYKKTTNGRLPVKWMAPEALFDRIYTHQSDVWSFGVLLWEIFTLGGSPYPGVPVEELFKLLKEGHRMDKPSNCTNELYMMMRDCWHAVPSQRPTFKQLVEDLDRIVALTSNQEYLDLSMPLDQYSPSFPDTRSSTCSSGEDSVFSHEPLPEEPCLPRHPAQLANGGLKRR
As to the kind of experiment: FGFR-1 high ATP kinase assay (TR-FRET). The format is biochemical. The settings on record: 2 mM ATP, 15 min pre-incubation; compounds of the invention (Table 1A). Background: In TR-FRET formats the signal depends on donor and acceptor labels being close together.

In assay [2] the target is T2, mTOR (Homo sapiens, UniProt P42345).
T2 construct: human mTOR amino acids from 1360 to 2549; purchased Invitrogen 4753; host or cells: insect cells
T2 sequence (P42345 1360-2549): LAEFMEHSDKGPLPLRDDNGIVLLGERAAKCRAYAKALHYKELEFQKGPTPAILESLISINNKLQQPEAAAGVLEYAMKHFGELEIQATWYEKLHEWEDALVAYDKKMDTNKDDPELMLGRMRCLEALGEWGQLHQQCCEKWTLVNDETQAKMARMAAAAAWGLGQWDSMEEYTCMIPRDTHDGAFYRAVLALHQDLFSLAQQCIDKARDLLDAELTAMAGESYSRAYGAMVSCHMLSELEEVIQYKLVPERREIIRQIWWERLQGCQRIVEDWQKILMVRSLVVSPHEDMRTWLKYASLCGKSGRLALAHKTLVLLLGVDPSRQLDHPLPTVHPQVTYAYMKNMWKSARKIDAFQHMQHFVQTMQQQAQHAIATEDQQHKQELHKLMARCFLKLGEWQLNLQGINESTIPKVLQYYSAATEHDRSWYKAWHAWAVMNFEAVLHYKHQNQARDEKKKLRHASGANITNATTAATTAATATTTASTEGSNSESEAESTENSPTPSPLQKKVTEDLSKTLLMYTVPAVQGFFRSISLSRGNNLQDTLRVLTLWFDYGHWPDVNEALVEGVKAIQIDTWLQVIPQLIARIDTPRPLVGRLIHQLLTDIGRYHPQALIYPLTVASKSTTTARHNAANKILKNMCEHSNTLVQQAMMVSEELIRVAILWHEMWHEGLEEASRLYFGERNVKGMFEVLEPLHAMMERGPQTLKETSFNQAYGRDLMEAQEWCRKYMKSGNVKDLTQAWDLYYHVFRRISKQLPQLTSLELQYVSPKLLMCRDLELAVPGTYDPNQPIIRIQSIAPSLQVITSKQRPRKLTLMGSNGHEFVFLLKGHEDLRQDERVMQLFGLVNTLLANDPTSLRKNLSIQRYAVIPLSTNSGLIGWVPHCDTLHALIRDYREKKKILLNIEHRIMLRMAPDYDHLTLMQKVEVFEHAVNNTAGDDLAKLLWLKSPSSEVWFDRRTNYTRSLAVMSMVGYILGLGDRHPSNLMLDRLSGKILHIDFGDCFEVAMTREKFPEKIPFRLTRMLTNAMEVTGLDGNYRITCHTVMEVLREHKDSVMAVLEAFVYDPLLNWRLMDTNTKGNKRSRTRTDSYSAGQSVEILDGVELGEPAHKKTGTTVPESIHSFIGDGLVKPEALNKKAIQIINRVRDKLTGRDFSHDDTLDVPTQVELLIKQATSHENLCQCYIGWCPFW
As to the kind of experiment: mTOR kinase assay (TR-FRET, for comparative purposes). Type of assay: biochemical. The settings on record: for inhibition at 1 µM: read-out: mTOR % inhibition @ 1 μM, mean inhibition at 1 μM test compound, 40 μM ATP.

Assay [3] deals with T3, FGFR-3 (Homo sapiens, UniProt P22607).
T3 construct: human FGFR-3 from amino acids R397 to T806 as in NCBI/Protein entry NP_000133.1; purchased Proqinase 1068-0000-1; host or cells: SF9 insect cells (baculovirus)
T3 sequence (P22607 397-806): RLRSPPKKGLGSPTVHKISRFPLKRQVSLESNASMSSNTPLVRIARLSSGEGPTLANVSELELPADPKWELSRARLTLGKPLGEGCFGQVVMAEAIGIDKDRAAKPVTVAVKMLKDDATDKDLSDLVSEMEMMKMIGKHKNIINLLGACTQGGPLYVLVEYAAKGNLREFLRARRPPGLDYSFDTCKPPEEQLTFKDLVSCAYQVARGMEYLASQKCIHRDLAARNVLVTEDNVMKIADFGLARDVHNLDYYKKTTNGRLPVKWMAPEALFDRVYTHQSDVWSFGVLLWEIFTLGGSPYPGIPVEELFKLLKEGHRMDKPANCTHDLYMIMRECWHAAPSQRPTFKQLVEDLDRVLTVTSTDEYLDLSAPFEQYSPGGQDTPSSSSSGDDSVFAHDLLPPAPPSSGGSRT
The experiment in a line: FGFR-3 kinase assay (TR-FRET). Type of assay: biochemical. The settings on record: 10 μM ATP, 15 min pre-incubation; compounds of the invention (Table 2A).

Assay [4] concerns Human umbilical vein endothelial cells (HUVEC). The experiment in a line: Inhibition of hFGF-2 mediated HUVEC proliferation. The format is cell-based. As to conditions: 72 h.

Take `COc1cc(C)cc2cc(-c3c(CNC4CC4)c(CN4CCNCC4)n4ncnc(N)c34)sc12` [Example 46, 6-[(Cyclopropylamino)methyl]-5-(7-methoxy-5-methyl-1-benzothiophen-2-yl)-7-(piperazin-1-ylmethyl)pyrrolo[2,1-f][1,2,4]triazin-4-amine trihydrochloride]: the IC50 (usually the midpoint of a concentration-inhibition curve) turned out to be 3.2 nM in assay [1] and 8.1 nM in assay [3]. Further, the inhibition (usually the share of the control response that was lost under treatment) at 1 µM in assay [2] came out at 11%.

For `COc1cc(C)cc2cc(-c3c(COCCO)c(CN4CCNCC4)n4ncnc(N)c34)sc12` [Example 22, 2-{[4-Amino-5-(7-methoxy-5-methyl-1-benzothiophen-2-yl)-7-(piperazin-1-ylmethyl)pyrrolo[2,1-f]-[1,2,4]triazin-6-yl]methoxy}ethanol dihydrochloride], the IC50 came out at 0.9 nM in assay [1] and 4.7 nM in assay [3]. In assay [2], the inhibition at 1 µM was found to be 17.6%.

`COc1cc(C)cc2cc(-c3c(CNC4CCC4)c(CN4CCNCC4)n4ncnc(N)c34)sc12` [Example 44, 6-[(Cyclobutylamino)methyl]-5-(7-methoxy-5-methyl-1-benzothiophen-2-yl)-7-(piperazin-1-ylmethyl)pyrrolo[2,1-f][1,2,4]triazin-4-amine trihydrochloride] showed an IC50 in assay [1] of 2.1 nM. Further, the inhibition at 1 µM in assay [2] was 13.3%.

Turning to `COc1cc(C)cc2cc(-c3c(COCCN)c(CN4CCNCC4)n4ncnc(N)c34)sc12` [Example 30, 6-[(2-Aminoethoxy)methyl]-5-(7-methoxy-5-methyl-1-benzothiophen-2-yl)-7-(piperazin-1-ylmethyl)pyrrolo[2,1-f][1,2,4]triazin-4-amine trihydrochloride], the results for the IC50 in assay [1] and in assay [3] were 2.8 nM and 6.4 nM, respectively. The inhibition at 1 µM in assay [2] was determined as 21.1%.

`CCNCc1c(-c2cc3cc(C)cc(OC)c3s2)c2c(N)ncnn2c1CN1CCNCC1` [Example 38, 6-[(Ethylamino)methyl]-5-(7-methoxy-5-methyl-1-benzothiophen-2-yl)-7-(piperazin-1-ylmethyl)pyrrolo[2,1-f][1,2,4]triazin-4-amine trihydrochloride] displayed an IC50 in assay [1] of 6.9 nM. Further, in assay [2], the inhibition at 1 µM turned out to be 20.8%.

With `COc1cc(C)cc2cc(-c3c(CNCC4CC4)c(CN4CCNCC4)n4ncnc(N)c34)sc12` [Example 47, 6-{[(Cyclopropylmethyl)amino]methyl}-5-(7-methoxy-5-methyl-1-benzothiophen-2-yl)-7-(piperazin-1-ylmethyl)pyrrolo[2,1-f][1,2,4]triazin-4-amine trihydrochloride], the results for the IC50 in assay [1] and in assay [3] were 1.7 nM and 3.4 nM, respectively. The inhibition at 1 µM in assay [2] was 14.7%.

The compound `CCOCc1c(-c2cc3cc(C)cc(OC)c3s2)c2c(N)ncnn2c1CN1CCN(C(C)=O)CC1` [Example 11, 1-(4-{[4-Amino-6-(ethoxymethyl)-5-(7-methoxy-5-methyl-1-benzothiophen-2-yl)pyrrolo[2,1-f][1,2,4]triazin-7-yl]methyl}piperazin-1-yl)ethanone dihydrochloride] returned an IC50 in assay [1] of 6.5 nM. The inhibition at 1 µM in assay [2] was determined as 33.2%.

Regarding `COc1cc(C)cc2cc(-c3c(CNC(C)=O)c(CN4CCNCC4)n4ncnc(N)c34)sc12` [Example 64, N-{[4-Amino-5-(7-methoxy-5-methyl-1-benzothiophen-2-yl)-7-(piperazin-1-ylmethyl)pyrrolo[2,1-f][1,2,4]triazin-6-yl]methyl}acetamide dihydrochloride], the IC50 in assay [1] amounted to 1 nM; in assay [3], 2.9 nM. Besides, in assay [2], the inhibition at 1 µM turned out to be 1.1%.

For the compound `COc1cc(C)cc2cc(-c3c(CN)c(CN4CCNCC4)n4ncnc(N)c34)sc12` [Example 62, 6-(Aminomethyl)-5-(7-methoxy-5-methyl-1-benzothiophen-2-yl)-7-(piperazin-1-ylmethyl)pyrrolo[2,1-f][1,2,4]triazin-4-amine trihydrochloride], the IC50 was found to be 3.1 nM in assay [1] and 11 nM in assay [3]. Moreover, in assay [2], the inhibition at 1 µM is 0.2%.

Take `COCc1c(-c2cc3cc(C)cc(OC)c3s2)c2c(N)ncnn2c1CN1CC[C@](C)(N)C1` [Example 14, 7-{[(3S)-3-Amino-3-methylpyrrolidin-1-yl]methyl}-6-(methoxymethyl)-5-(7-methoxy-5-methyl-1-benzothiophen-2-yl)pyrrolo[2,1-f][1,2,4]triazin-4-amine trihydrochloride]: the inhibition at 1 µM in assay [2] stood at 15.7%. In assay [3], this compound gave an IC50 of 2.5 nM.

As to `COc1cc(C)cc2cc(-c3c(CNCCO)c(CN4CCNCC4)n4ncnc(N)c34)sc12` [Example 39, 2-({[4-Amino-5-(7-methoxy-5-methyl-1-benzothiophen-2-yl)-7-(piperazin-1-ylmethyl)pyrrolo[2,1-f]-[1,2,4]triazin-6-yl]methyl}amino)ethanol trihydrochloride], the figures for the IC50 in assay [1] and in assay [3] were 1.1 nM and 4.9 nM, respectively. In addition, the inhibition at 1 µM in assay [2] stood at 11.5%.

On to `COc1cc(C)cc2cc(-c3c(CN4CCCC4)c(CN4CCNCC4)n4ncnc(N)c34)sc12` [Example 45, 5-(7-Methoxy-5-methyl-1-benzothiophen-2-yl)-7-(piperazin-1-ylmethyl)-6-(pyrrolidin-1-ylmethyl)pyrrolo[2,1-f][1,2,4]triazin-4-amine trihydrochloride], for which the IC50 in assay [1] was 3.4 nM; in assay [3] it was 9.7 nM. The inhibition at 1 µM in assay [2] was found to be 15.5%.

On to `COC(=O)c1c(-c2cc3cc(C)cc(OC)c3s2)c2c(N)ncnn2c1C(=O)N1CCNCC1` [Example 60, Methyl 4-amino-5-(7-methoxy-5-methyl-1-benzothiophen-2-yl)-7-(piperazin-1-ylcarbonyl)pyrrolo[2,1-f][1,2,4]triazine-6-carboxylate bis(formiate)], for which the IC50 in assay [4] turned out to be 250 nM. Also, the inhibition at 1 µM in assay [2] was found to be 11.1%.

Take `COCc1c(-c2cc3cc(C)cc(OC)c3s2)c2c(N)ncnn2c1CN1CCN(C(C)=O)CC1` [Example 16, 1-(4-{[4-Amino-6-(methoxymethyl)-5-(7-methoxy-5-methyl-1-benzothiophen-2-yl)pyrrolo[2,1-f]-[1,2,4]triazin-7-yl]methyl}piperazin-1-yl)ethanone dihydrochloride]: the inhibition at 1 µM in assay [2] was determined as 36.9%. The IC50 in assay [3] turned out to be 9.4 nM.

Regarding `COc1cc(C)cc2cc(-c3c(COCCO)c(CN4CCNC(=O)C4)n4ncnc(N)c34)sc12` [Example 21, 4-({4-Amino-6-[(2-hydroxyethoxy)methyl]-5-(7-methoxy-5-methyl-1-benzothiophen-2-yl)pyrrolo[2,1-f][1,2,4]triazin-7-yl}methyl)piperazin-2-one formiate], in assay [4], the IC50 worked out at 3.7 nM. Further, the inhibition at 1 µM in assay [2] amounted to 5%.

The compound `COc1cc(C)cc2cc(-c3c(CNCC(C)(C)O)c(C)n4ncnc(N)c34)sc12` [Example 77, 1-({[4-Amino-5-(7-methoxy-5-methyl-1-benzothiophen-2-yl)-7-methylpyrrolo[2,1-f][1,2,4]triazin-6-yl]methyl}amino)-2-methylpropan-2-ol formiate] came in with an IC50 in assay [4] of 3.2 nM. The “mTOR % inhibition @ 1 μM” value in assay [2] (mean inhibition at 1 μM test compound, 40 μM ATP) came out at 0.7%.

For `COc1cc(C)cc2cc(-c3c(CN[C@@H]4CCNC4=O)c(CN4CCN(C(C)=O)CC4)n4ncnc(N)c34)sc12` [Example 56, (3R)-3-[({7-[(4-Acetylpiperazin-1-yl)methyl]-4-amino-5-(7-methoxy-5-methyl-1-benzothiophen-2-yl)pyrrolo[2,1-f][1,2,4]triazin-6-yl}methyl)amino]pyrrolidin-2-one], the IC50 in assay [4] turned out to be 18.1 nM. Moreover, the inhibition at 1 µM in assay [2] was 16.1%.

As to `COc1cc(C)cc2cc(-c3c(CN4CCNC(=O)C4)c(CN4CCOCC4)n4ncnc(N)c34)sc12` [Example 52, 4-{[4-Amino-5-(7-methoxy-5-methyl-1-benzothiophen-2-yl)-7-(morpholin-4-ylmethyl)pyrrolo[2,1-f][1,2,4]triazin-6-yl]methyl}piperazin-2-one], in assay [4], the IC50 came to 4 nM. In assay [2], the inhibition at 1 µM amounted to 4.2%.

Regarding `COc1cc(C)cc2cc(-c3c(COC4CCC4)c(CN4CCNCC4)n4ncnc(N)c34)sc12` [Example 26, 6-[(Cyclobutyloxy)methyl]-5-(7-methoxy-5-methyl-1-benzothiophen-2-yl)-7-(piperazin-1-ylmethyl)pyrrolo[2,1-f][1,2,4]triazin-4-amine], the IC50 in assay [4] is 56.7 nM. For the same compound, the inhibition at 1 µM in assay [2] was 6.8%.

Regarding `COc1cc(C)cc2cc(-c3c(-c4cnco4)c(CN4CCNCC4)n4ncnc(N)c34)sc12` [Example 61, 5-(7-Methoxy-5-methyl-1-benzothiophen-2-yl)-6-(1,3-oxazol-5-yl)-7-(piperazin-1-ylmethyl)pyrrolo[2,1-f][1,2,4]triazin-4-amine trihydrochloride], in assay [2], the inhibition at 1 µM turned out to be 15.9%. In assay [3], this compound yielded an IC50 of 0.9 nM.

Take `COc1cc(C)cc2cc(-c3c(COCC(N)=O)c(CN4CCN(C(C)=O)CC4)n4ncnc(N)c34)sc12` [Example 34, 2-({7-[(4-Acetylpiperazin-1-yl)methyl]-4-amino-5-(7-methoxy-5-methyl-1-benzothiophen-2-yl)pyrrolo[2,1-f][1,2,4]triazin-6-yl}methoxy)acetamide]: the IC50 in assay [4] was 37.3 nM. Also, in assay [2], the inhibition at 1 µM came out at 25.9%.

The compound `COc1cc(C)cc2cc(-c3c(CNCC(C)O)c(CN4CCOCC4)n4ncnc(N)c34)sc12` (racemic) [Example 53, rac-1-({[4-Amino-5-(7-methoxy-5-methyl-1-benzothiophen-2-yl)-7-(morpholin-4-ylmethyl)pyrrolo[2,1-f][1,2,4]triazin-6-yl]methyl}amino)propan-2-ol] had an IC50 in assay [4] of 3.3 nM. In addition, the inhibition at 1 µM in assay [2] worked out at 3.3%.
